Values of other authors in patent US20100099776A1, “OILY SUSPENSION OF ATOVAQUONE” (RANBAXY LABORATORIES LIMITED, priority 2008, published 2010).

Details: single oral dose

dose above which absorption is dose-limited: above 750 mg
increase of absorption by the presence of fatty food (with fatty food): about three-fold
Structure (SMILES): O=C1C(O)=C([C@H]2CC[C@H](c3ccc(Cl)cc3)CC2)C(=O)c2ccccc21 [Atovaquone, 244-(4-chlorophenyl)cyclohexyl′-3-hydroxy-1,4-naphthoquinone]
